This passage reports IC50, Efficacy and EC50 results from ChEMBL document CHEMBL1130196, “Selective, orally active 5-HT1D receptor agonists as potential antimigraine agents” (J Med Chem, 1997).

Test [1] addresses T1, 5-hydroxytryptamine receptor 1B (Homo sapiens, UniProt P28222). Put plainly: Displacement of [3H]5-HT from human 5-hydroxytryptamine 1B receptor expressed in CHO cells. The class given is cell-based. For orientation: Loss of bound radioactivity is the signal in a displacement assay; it reports binding, not function.
The target of test [2] is T2, 5-hydroxytryptamine receptor 1D (Homo sapiens, UniProt P28221). Kind of test: Maximum stimulation of [35S]GTP-gamma-S, binding to 5-hydroxytryptamine 1D receptor relative to 5-HT. The class given is functional. (Binding of GTPγS marks nucleotide exchange on a G protein.)
In test [3] the target is T2, 5-hydroxytryptamine receptor 1D. Put plainly: Displacement of [3H]5-HT from human 5-hydroxytryptamine 1D receptor expressed in CHO cells. The class given is cell-based.
For test [4] the target is unchanged. Put plainly: Stimulation of [35S]GTP-gamma-S, binding in CHO cells expressing 5-hydroxytryptamine 1D receptor. The class given is functional, cell-based.
For test [5], the target named is T3, 5-hydroxytryptamine receptor 1A (Mus musculus, UniProt Q64264).
T3 sequence (Q64264 whole entry): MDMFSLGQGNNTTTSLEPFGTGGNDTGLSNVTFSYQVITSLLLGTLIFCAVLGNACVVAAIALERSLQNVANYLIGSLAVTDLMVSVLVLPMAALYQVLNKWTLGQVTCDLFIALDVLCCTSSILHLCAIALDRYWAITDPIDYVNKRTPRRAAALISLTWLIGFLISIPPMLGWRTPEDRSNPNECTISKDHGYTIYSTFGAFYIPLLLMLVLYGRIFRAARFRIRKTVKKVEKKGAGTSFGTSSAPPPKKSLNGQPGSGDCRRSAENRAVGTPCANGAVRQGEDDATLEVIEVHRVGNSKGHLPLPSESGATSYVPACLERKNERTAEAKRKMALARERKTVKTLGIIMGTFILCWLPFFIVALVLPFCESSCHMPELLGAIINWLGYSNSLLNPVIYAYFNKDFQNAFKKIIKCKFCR
Kind of test: Compound was evaluated for the affinity at 5-hydroxytryptamine 1A receptor.

In test [6] the target is T1, 5-hydroxytryptamine receptor 1B. Put plainly: Compound was evaluated for the affinity at 5-hydroxytryptamine 1B receptor.
Test [7] has as its target T2, 5-hydroxytryptamine receptor 1D. Kind of test: Compound was evaluated for the stimulation of [35S]GTP-gamma-S, binding in CHO cells expressing the 5-hydroxytryptamine 1D receptor. The class given is functional, cell-based.
Test [8] deals with 5-hydroxytryptamine receptor 1E (Homo sapiens, UniProt P28566). Put plainly: Compound was evaluated for the affinity at 5-hydroxytryptamine 1E receptor.
For test [9], the target named is T4, 5-hydroxytryptamine receptor 1F (Homo sapiens, UniProt P30939).
T4 sequence (P30939 whole entry): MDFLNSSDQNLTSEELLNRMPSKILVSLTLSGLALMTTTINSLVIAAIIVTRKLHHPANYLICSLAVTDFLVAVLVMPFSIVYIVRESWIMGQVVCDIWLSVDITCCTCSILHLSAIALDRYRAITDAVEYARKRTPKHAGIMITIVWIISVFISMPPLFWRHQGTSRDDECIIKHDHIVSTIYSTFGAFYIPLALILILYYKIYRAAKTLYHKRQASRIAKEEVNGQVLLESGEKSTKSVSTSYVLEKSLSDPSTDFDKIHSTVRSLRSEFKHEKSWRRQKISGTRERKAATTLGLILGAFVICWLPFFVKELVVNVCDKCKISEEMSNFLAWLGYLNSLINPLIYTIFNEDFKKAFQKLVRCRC
Kind of test: Compound was evaluated for the affinity at 5-hydroxytryptamine 1F receptor.

For test [10], the target named is T2, 5-hydroxytryptamine receptor 1D. Kind of test: Compound was evaluated for the affinity at 5-hydroxytryptamine 1D receptor.
In test [11] the target is 5-hydroxytryptamine receptor 2A (Homo sapiens, UniProt P28223). Put plainly: Compound was evaluated for the affinity at 5-hydroxytryptamine 2A receptor.
Test [12] has as its target T5, 5-hydroxytryptamine receptor 3A (Homo sapiens, UniProt P46098).
T5 sequence (P46098 whole entry): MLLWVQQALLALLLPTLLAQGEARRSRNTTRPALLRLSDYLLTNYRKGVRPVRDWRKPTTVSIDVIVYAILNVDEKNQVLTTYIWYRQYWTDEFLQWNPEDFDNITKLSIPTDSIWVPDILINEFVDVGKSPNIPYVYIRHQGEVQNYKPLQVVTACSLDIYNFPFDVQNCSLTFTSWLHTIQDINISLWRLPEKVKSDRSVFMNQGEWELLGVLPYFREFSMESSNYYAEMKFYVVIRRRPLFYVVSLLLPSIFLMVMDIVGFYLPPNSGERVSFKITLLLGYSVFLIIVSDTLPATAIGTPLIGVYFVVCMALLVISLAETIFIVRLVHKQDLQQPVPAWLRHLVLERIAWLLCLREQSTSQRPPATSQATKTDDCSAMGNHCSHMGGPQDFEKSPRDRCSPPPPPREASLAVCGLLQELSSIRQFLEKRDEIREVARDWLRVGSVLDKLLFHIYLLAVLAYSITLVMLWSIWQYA
Kind of test: Compound was evaluated for the affinity at 5-hydroxytryptamine 3 receptor.

Test [13] has as its target T6, 5-hydroxytryptamine receptor 2C (Homo sapiens, UniProt P28335).
T6 sequence (P28335 whole entry): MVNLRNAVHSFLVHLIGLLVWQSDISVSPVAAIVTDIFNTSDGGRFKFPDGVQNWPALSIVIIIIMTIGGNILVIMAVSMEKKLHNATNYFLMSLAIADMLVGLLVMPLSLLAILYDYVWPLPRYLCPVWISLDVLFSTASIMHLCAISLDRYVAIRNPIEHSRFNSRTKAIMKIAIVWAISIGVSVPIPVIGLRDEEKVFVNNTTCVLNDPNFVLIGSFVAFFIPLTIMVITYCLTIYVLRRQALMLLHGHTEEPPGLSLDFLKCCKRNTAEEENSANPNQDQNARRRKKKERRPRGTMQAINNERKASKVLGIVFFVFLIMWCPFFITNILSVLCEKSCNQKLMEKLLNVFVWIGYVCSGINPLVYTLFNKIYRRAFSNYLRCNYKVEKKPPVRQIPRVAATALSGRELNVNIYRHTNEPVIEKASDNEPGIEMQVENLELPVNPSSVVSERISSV
Kind of test: Compound was evaluated for the affinity at 5-hydroxytryptamine 2C receptor.

Molecules are shown by their SMILES.

T2 sequence (P28221 whole entry): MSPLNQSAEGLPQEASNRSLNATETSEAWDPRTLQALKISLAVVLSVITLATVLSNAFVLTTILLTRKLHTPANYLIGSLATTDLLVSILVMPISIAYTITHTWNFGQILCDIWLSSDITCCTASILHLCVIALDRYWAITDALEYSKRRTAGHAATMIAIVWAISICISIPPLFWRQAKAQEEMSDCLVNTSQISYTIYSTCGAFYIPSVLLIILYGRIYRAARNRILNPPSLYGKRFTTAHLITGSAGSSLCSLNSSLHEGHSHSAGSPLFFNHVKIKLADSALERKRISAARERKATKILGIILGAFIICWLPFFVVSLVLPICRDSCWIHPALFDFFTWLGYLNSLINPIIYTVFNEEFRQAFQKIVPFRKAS
T1 sequence (P28222 whole entry): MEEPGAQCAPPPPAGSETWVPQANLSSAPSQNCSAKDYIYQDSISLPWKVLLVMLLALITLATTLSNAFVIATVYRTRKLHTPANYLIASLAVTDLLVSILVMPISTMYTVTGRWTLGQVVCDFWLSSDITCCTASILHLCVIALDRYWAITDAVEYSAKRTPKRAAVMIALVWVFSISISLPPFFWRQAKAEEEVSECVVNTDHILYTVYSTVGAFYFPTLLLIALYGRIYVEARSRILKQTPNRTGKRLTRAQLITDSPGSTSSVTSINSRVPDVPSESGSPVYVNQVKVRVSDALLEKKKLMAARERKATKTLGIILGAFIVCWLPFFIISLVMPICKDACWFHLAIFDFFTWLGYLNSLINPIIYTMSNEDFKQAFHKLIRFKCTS
Chain of 5-hydroxytryptamine receptor 1E (P28566 whole entry): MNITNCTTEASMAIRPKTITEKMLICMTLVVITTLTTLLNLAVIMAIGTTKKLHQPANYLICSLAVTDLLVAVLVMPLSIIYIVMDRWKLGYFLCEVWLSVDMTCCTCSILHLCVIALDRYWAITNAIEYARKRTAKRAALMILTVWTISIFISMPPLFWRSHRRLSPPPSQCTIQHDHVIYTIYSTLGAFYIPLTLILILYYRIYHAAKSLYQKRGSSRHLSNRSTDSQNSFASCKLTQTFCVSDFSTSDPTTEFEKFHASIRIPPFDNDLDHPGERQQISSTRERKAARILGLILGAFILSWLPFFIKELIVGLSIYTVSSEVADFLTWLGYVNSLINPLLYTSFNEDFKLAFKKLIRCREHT
Chain of 5-hydroxytryptamine receptor 2A (P28223 whole entry): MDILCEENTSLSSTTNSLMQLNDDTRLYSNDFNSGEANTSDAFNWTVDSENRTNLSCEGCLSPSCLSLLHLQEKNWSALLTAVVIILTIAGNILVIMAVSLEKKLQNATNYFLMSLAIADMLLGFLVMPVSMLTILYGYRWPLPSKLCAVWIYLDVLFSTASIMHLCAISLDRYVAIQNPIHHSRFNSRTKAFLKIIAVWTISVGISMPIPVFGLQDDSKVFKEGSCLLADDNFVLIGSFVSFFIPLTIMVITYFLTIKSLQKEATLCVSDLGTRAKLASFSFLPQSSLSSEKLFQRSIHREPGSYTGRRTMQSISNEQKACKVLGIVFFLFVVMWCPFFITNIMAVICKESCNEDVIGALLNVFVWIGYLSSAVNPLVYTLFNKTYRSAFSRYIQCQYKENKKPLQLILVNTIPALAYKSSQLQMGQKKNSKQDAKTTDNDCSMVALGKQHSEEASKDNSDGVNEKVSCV

As to `CC(=O)Nc1cccc(CCN2CCN(CCCc3c[nH]c4ccc(-n5cnnc5)cc34)CC2)c1`, the IC50 in test [1] came to 170 nM; in [3], 1.8 nM. For the same compound, the Efficacy in test [2] came out at 96%. This compound also returned an EC50 in test [4] of 1.6 nM.

For `c1ccc(CCN2CCN(CCCc3c[nH]c4ccc(-n5cnnc5)cc34)CC2)cc1`, the figures for the IC50 in [1] and in test [3] were 170 nM and 1.4 nM, respectively. Further, the Efficacy in [2] came to 65%. Besides, the response in test [4] was half-maximal at 0.9 nM (EC50).

For the compound `c1cc2[nH]cc(CCN3CCCC3)c2cc1-n1cnnc1`, in test [2], the Efficacy amounted to 120%.

Consider `Fc1cccc(CCN2CCN(CCCc3c[nH]c4ccc(-n5cnnc5)cc34)CC2)c1`, for which the IC50 in test [5] was 55 nM; in test [1] it was 75 nM; in test [6], 75 nM; in [8], greater than 10000 nM; in [9] it was 3800 nM; in test [3], 0.6 nM. The IC50 in [10] is 0.6 nM; in test [11], 370 nM; in test [12], greater than 10000 nM; in [13] it was 9000 nM. For the same compound, a half-maximal effect in test [7] (EC50) was put at 1.2 nM.

For the compound `CN1CCN(CCc2c[nH]c3ccc(-n4cnnc4)cc23)CC1`, the IC50 in test [1] was determined as 310 nM; in test [3] it was 140 nM. The same compound had an Efficacy in [2] of 63%. The same compound displayed an EC50 in [4] of 80 nM.

As to `Fc1ccc(CCN2CCN(CCCc3c[nH]c4ccc(-n5cnnc5)cc34)CC2)cc1F`, the IC50 in [1] turned out to be 98 nM; in [3], 1 nM. This compound returned an Efficacy in test [2] of 86%. Further, the EC50 in test [4] turned out to be 1.9 nM.

Take `Fc1cc(F)cc(CCN2CCN(CCCc3c[nH]c4ccc(-n5cnnc5)cc34)CC2)c1`: the IC50 in test [1] stood at 47 nM; in [3] it was 0.7 nM. In test [2], this compound had an Efficacy of 86%. The compound further registered an EC50 in test [4] of 0.6 nM.

For the compound `Fc1ccccc1CCN1CCN(CCCc2c[nH]c3ccc(-n4cnnc4)cc23)CC1`, the IC50 in test [1] came out at 100 nM; in test [3] it was 0.6 nM. The compound also registered an Efficacy in test [2] of 80%. For the same compound, the EC50 in test [4] worked out at 1.5 nM.

As to `CN1CCN(CCCc2c[nH]c3ccc(-n4cnnc4)cc23)CC1`, the IC50 turned out to be 430 nM in [1] and 35 nM in [3]. In [2], this compound returned an Efficacy of 104%. Besides, in test [4], the EC50 worked out at 53 nM.

Consider `CNS(=O)(=O)Cc1ccc2[nH]cc(CCN(C)C)c2c1`, for which the IC50 in test [5] turned out to be 450 nM; in [8] it was 2400 nM.

Consider `c1ccc(CN2CCN(CCCc3c[nH]c4ccc(-n5cnnc5)cc34)CC2)cc1`, for which the IC50 in test [1] is 8.1 nM; in [3] it was 0.2 nM. In test [2], the Efficacy came out at 56%. A half-maximal effect in [4] (EC50) was put at 0.1 nM.

With `CC(=O)Nc1ccc(CCN2CCN(CCCc3c[nH]c4ccc(-n5cnnc5)cc34)CC2)cc1`, the IC50 in test [1] worked out at 251 nM; in [3], 1.3 nM. Besides, the Efficacy in test [2] was 85%. Besides, it took 1.9 nM to reach a half-maximal effect in test [4] (EC50).

On to `Fc1ccc(CCN2CCN(CCCc3c[nH]c4ccc(-n5cnnc5)cc34)CC2)cc1`, for which the IC50 in test [1] amounted to 120 nM; in test [3], 0.8 nM. For the same compound, the Efficacy in test [2] was 81%. This compound had an EC50 in test [4] of 1.5 nM.

One may read the IC50 as the concentration at which inhibition is half-maximal. A higher IC50 goes with weaker potency in that assay. As usually defined, the EC50 is the concentration at which the effect is half-maximal. Low values mean greater potency, high ones weaker potency.
